Literature values, collected in patent publication US20090234270A1, “Therapy and device for treatment of nail infections” (Ondine International, Ltd., priority 2008, published 2009).

Experiments:
[1] = in vivo, po

SMILES	side effects [1]	also measured
OC(Cn1cncn1)(Cn1cncn1)c1ccc(F)cc1F [Fluconazole]	severe side effects	
COC1=CC(=O)C[C@@H](C)[C@]12Oc1c(Cl)c(OC)cc(OC)c1C2=O [Griseofulvin]	undesired side effects	efficacy in onychomycosis (onychomycosis; oral medicine): largely ineffectual
CN(C/C=C/C#CC(C)(C)C)Cc1cccc2ccccc12 [Lamisil, terbinafine]		nail clearing, share of patients (onychomycosis; oral, once a day for 90 days, clearing for one year): 70-80%
CC12CCC(CC1=O)C2(C)C (stereo not drawn) [camphor]		solubility in water: poorly soluble in water
CCC(C)n1ncn(-c2ccc(N3CCN(c4ccc(OCC5COC(Cn6cncn6)(c6ccc(Cl)cc6Cl)O5)cc4)CC3)cc2)c1=O (stereo not drawn) [itraconazole]	somewhat severe	
